Reference: patent US8586547B2, “CDC45L peptides and vaccines including the same” (Oncotherapy Science, Inc., priority 2009, dated 2013)
Like-named read-outs stand apart in the source and are kept apart here. Where a SMILES comes first, the peptide text is derived from it.

Assays:
[1] = tested on: Lu99 cells (CDC45L+, HLA-A24+); test: 51Cr-release assay against Lu99 lung cancer cells; type: cell-based, human
Procedure: (§1) To knock down the expression of CDC45L in lung cancer cells, CDC45L small interfering (si) RNAs (human Cdc45 siRNA, sc-35044: a pool of three target-specific 20-25 nt siRNAs; Santa Cruz) were added at a final concentration of 150 nM to 40-60% confluent cells. Lipofectamine™ 2000 (Invitrogen) was used to transfect the siRNAs into cells, according to the manufacturer's instructions. GFP siRNAs were used as an irrelevant control. The treated cells were washed once with PBS, and adherent cells were collected at 72 h after transfection and used as target cells for the ^51Cr-release assay. To investigate the ability of siRNA to suppress CDC45L expression, western blot analysis was performed as described previously (Nakatsura T et al., Biochem Biophys Res Commun 2003; 306:16-25). Cancer cells were washed once with PBS at 48 h after transfection, and adherent cells were collected and lysed to analyze the expression levels of CDC45L for comparison with those of negative control cells. Beta-actin was used as the internal control. Rabbit polyclonal antibody reactive to CDC45L (sc-20685, Santa Cruz Biotechnology) was used as the primary antibody.

[2] = tested on: A549 cells (CDC45L+, HLA-A24-); type: cell-based, human
Procedure: (§2) The CTLs were co-cultured with cancer cells or peptide-pulsed C1R-A2402 and T2 cells as target cells (5×10^3/well) at the indicated effector-to-target ratio, and a standard ^51Cr-release assay was performed as described previously (Yokomine K et al., Int J Cancer 2009; 126:2153-63, Monji M et al., Clin Cancer Res 2004; 10:6047-57). The blocking of HLA-class I by anti-human HLA class I mAb, W6/32 (IgG2a, Santa Cruz Biotechnology), or HLA-class II by anti-human HLA-DR mAb (IgG2a, BD Biosciences), was performed as described previously (Komori H et al., Clin Cancer Res 2006; 12:2689-97, Makita M et al., Clin Cancer Res 2002; 8:2626-31).

[3] = tested on: C1R-A2402 cells pulsed with CDC45L derived peptides
Procedure: The DCs were pulsed with 20 micro-g/mL of the candidate peptides in the presence of 4 micro-g/mL beta 2-microglobulin (Sigma-Aldrich) for 2 h at 37 degrees C. in AIM-V (Invitrogen) supplemented with 2% heat-inactivated autologous plasma. The cells were then irradiated (40 Gy) and incubated with the isolated CD8^+ T cells as described previously (Imai K et al., Clin Cancer Res 2008; 14:6487-95, Harao M et al., Int J Cancer 2008; 123:2616-25). Two additional stimulations with peptide-loaded autologous PHA-blasts were performed on days 7 and 14. The PHA-blasts were generated as described previously (Inoue M et al., Immunol Lett 2009; 126:67-72), and these PHA-blasts (5×10^5) were pulsed with 20 micro-g/mL peptides for 3 h, irradiated (100 Gy) and cultured with the 2×10^6 CD8^+ T cells in the presence of 10 ng/mL human recombinant IL-7 (Wako, Osaka, Japan). After 2 days, the cultures were supplemented with 20 IU/mL human recombinant IL-2 (PeproTec, Inc.).
Six days after the last stimulation, the antigen-specific responses of the induced CTLs were investigated. Two additional weekly stimulations with peptide-loaded autologous PHA-blasts were carried out on day 7 and 14. Autologous CD 14^− CD8^− cells enriched with CD4^+ T cells were cultured with PHA (2 micro-g/mL) and human recombinant IL-2 (100 IU/mL) for 2 days, and cells were washed with PBS and cultured with human recombinant IL-2 (100 IU/mL) for additional three days. These PHA-blasts (5×10^5) were pulsed with 50 micro-g/mL peptides for 2 hours at 37 degrees C. in AIM-V (Invitrogen) supplemented with 2% heat-inactivated autologous plasma. The cells were then irradiated (100 Gy) and incubated with the 2×10^6 CD8^+ T cells. These cultures were set up in 24-well plates using the medium supplemented with 5 ng/mL human recombinant IL-7, IL-2, and IL-15. Six days after the last stimulation, the antigen-specific responses of the induced CTLs were investigated by an IFN-gamma ELISPOT assay, CD107a mobilization assay and ^51Cr release assay as described previously (Komori H et al. Clin Cancer Res 2006; 12: 2689-97) and below.
The frequency of cells producing interferon (IFN)-gamma per 1×10^5 CTLs upon stimulation with Lu99 cells (1×10^4/well) or peptide-pulsed C1R-A2402 and T2 cells (1×10^4/well) was analyzed by an ELISPOT assay (Human IFN-gamma ELISPOT kit, BD Biosciences) as previously described (Komori H et al., Clin Cancer Res 2006; 12:2689-97, Bourgault V I et al., Cancer Res 2004; 64:8761-6). The CTLs were co-cultured with cancer cells or peptide-pulsed C1R-A2402 and T2 cells as target cells (5×10^3/well) at the indicated effector-to-target ratio, and a standard ^51Cr-release assay was performed as described previously (Yokomine K et al., Int J Cancer 2009; 126:2153-63, Monji M et al., Clin Cancer Res 2004; 10:6047-57). The blocking of HLA-class I by anti-human HLA class I mAb, W6/32 (IgG2a, Santa Cruz Biotechnology), or HLA-class II by anti-human HLA-DR mAb (IgG2a, BD Biosciences), was performed as described previously (Komori H et al., Clin Cancer Res 2006; 12:2689-97, Makita M et al., Clin Cancer Res 2002; 8:2626-31).

[4] = Immunization of BALB/c mice with peptides emulsified in incomplete Freund adjuvant; type: in vivo; conditions: long-term observation period, unpublished data
[5] = tested on: EBC-1 cells (CDC45L+, HLA-A24+); type: cell-based, human
Procedure: as §1

[6] = tested on: T2 cells pulsed with the peptide; conditions: CTL lines from HLA-A2 positive healthy donor; not against HIV-A2 peptide-loaded T2 cells
Procedure: PBMCs were isolated from HLA-A24 or HLA-A2 positive Japanese healthy donors and lung cancer patients, and the peripheral monocyte-derived dendritic cells (DCs) were generated as described previously (Harao M et al., Int J Cancer 2008; 123:2616-25, Naito K et al., Int J Oncol 2006; 28:1481-9). The DCs were pulsed with 20 micro-g/mL of the candidate peptides in the presence of 4 micro-g/mL beta 2-microglobulin (Sigma-Aldrich) for 2 h at 37 degrees C. in AIM-V (Invitrogen) supplemented with 2% heat-inactivated autologous plasma. The cells were then irradiated (40 Gy) and incubated with the isolated CD8^+ T cells as described previously (Imai K et al., Clin Cancer Res 2008; 14:6487-95, Harao M et al., Int J Cancer 2008; 123:2616-25). Two additional stimulations with peptide-loaded autologous PHA-blasts were performed on days 7 and 14. […]
The frequency of cells producing interferon (IFN)-gamma per 1×10^5 CTLs upon stimulation with Lu99 cells (1×10^4/well) or peptide-pulsed C1R-A2402 and T2 cells (1×10^4/well) was analyzed by an ELISPOT assay (Human IFN-gamma ELISPOT kit, BD Biosciences) as previously described (Komori H et al., Clin Cancer Res 2006; 12:2689-97, Bourgault V I et al., Cancer Res 2004; 64:8761-6). […]

[7] = tested on: Panc1 cells (CDC45L+, HLA-A2+, HLA-A24-); test: 51Cr-release assay against Panc1 cells; conditions: not inhibited by control anti-HLA-class II mAb
Procedure: as §2

Compound	cytotoxic activity of CTL lines against peptide-pulsed C1R-A2402 cells [3]	pathological changes, such as lymphocyte infiltration or tissue destruction [4]	signs of autoimmune diseases, such as weight loss, diarrhea and skin abnormalities [4]	cytotoxicity of peptide-induced CTLs against EBC-1 cells [5]	further results
CC[C@H](C)[C@H](NC(=O)[C@H](CCC(N)=O)NC(=O)[C@@H](NC(=O)[C@H](CC(=O)O)NC(=O)[C@H](CC(N)=O)NC(=O)[C@H](Cc1ccc(O)cc1)NC(=O)[C@@H](N)C(C)C)[C@@H](C)O)C(=O)N[C@@H](CCCCN)C(=O)N[C@@H](CC(C)C)C(=O)O [CDC45L-A24-9-109-2] (H-VYNDTQIKL-OH)	exhibited cytotoxic activity	did not exhibit pathological changes	no signs of autoimmune diseases		cytotoxicity of peptide-induced CTLs against Lu99 cells [1]: exhibited cytotoxicity; cytotoxicity of peptide-induced CTLs against Lu99 cells transfected with CDC45L specific siRNAs [1]: not against; cytotoxicity of peptide-induced CTLs against A549 cells [2]: not against
CC(C)C[C@H](NC(=O)[C@H](CCCCN)NC(=O)[C@H](Cc1ccccc1)NC(=O)[C@H](CCCNC(=N)N)NC(=O)[C@H](C)NC(=O)[C@H](C)NC(=O)[C@@H](NC(=O)[C@H](Cc1ccc(O)cc1)NC(=O)[C@@H](N)CO)[C@@H](C)O)C(=O)O [CDC45L-A24-9-294-3] (H-SYTAARFKL-OH)	exhibited cytotoxic activity	did not exhibit pathological changes	no signs of autoimmune diseases	exhibited cytotoxicity	
CC(C)C[C@H](NC(=O)[C@H](Cc1ccccc1)NC(=O)[C@@H](N)CCCCN)C(=O)N[C@@H](C)C(=O)N[C@@H](CO)C(=O)N[C@@H](CC(=O)O)C(=O)N[C@H](C(=O)N[C@H](C(=O)N[C@@H](Cc1ccccc1)C(=O)O)C(C)C)C(C)C [CDC45L-A24-9-370-7] (H-KFLASDVVF-OH)	exhibited cytotoxic activity			exhibited cytotoxicity	
CC[C@H](C)[C@H](NC(=O)[C@H](CC(C)C)NC(=O)[C@H](C)NC(=O)[C@H](CC(=O)O)NC(=O)[C@H](CC(C)C)NC(=O)[C@H](Cc1ccccc1)NC(=O)[C@@H](N)CCCCN)C(=O)N[C@@H](CO)C(=O)N[C@@H](CC(C)C)C(=O)O [CDC45L-A24-9-556-4] (H-KFLDALISL-OH)	exhibited cytotoxic activity				cytotoxicity of peptide-induced CTLs against Lu99 cells transfected with CDC45L specific siRNAs ([1]; CDC45L-, HLA-A24+ target cells): not against; cytotoxicity of peptide-induced CTLs against Lu99 cells ([1]; Lu99 cells and Lu99 cells transfected with control GFP siRNAs): exhibited cytotoxicity; cytotoxicity of CTL lines against peptide-pulsed T2 cells [6]: exhibited cytotoxicity; cytotoxicity of CTL lines against C1R-A2402 cells loaded with the peptide [3]: not against; cytotoxicity against Panc1 cells in presence of blocking mAb against HLA-class I (W6/32) [7]: significantly inhibited
CC[C@H](C)[C@H](NC(=O)[C@H](CC(C)C)NC(=O)[C@H](C)NC(=O)[C@H](CC(=O)O)NC(=O)[C@H](CC(C)C)NC(=O)[C@H](Cc1ccccc1)NC(=O)[C@@H](N)CCCCN)C(=O)N[C@@H](CO)C(=O)N[C@@H](CC(C)C)C(=O)N[C@@H](CC(C)C)C(=O)O [CDC45L-A24-10-556-12] (H-KFLDALISLL-OH)	exhibited cytotoxic activity				
